Legend:
[1] = molecular target: T1, c-Met (Homo sapiens, UniProt P08581); experiment: HTRF c-Met kinase assay; also radiometric kinase panel (Met activity -2 at […]); assay type: biochemical; settings: read-out: IC50 (nM) in c-Met enzyme assay
T1 construct: recombinant kinase domain of c-Met

[2] = molecular target: T1, c-Met; experiment: biochemical; settings: read-out: IC50 (nM) in c-Met enzyme assay

T1 sequence (P08581 956-1390 limits assumed): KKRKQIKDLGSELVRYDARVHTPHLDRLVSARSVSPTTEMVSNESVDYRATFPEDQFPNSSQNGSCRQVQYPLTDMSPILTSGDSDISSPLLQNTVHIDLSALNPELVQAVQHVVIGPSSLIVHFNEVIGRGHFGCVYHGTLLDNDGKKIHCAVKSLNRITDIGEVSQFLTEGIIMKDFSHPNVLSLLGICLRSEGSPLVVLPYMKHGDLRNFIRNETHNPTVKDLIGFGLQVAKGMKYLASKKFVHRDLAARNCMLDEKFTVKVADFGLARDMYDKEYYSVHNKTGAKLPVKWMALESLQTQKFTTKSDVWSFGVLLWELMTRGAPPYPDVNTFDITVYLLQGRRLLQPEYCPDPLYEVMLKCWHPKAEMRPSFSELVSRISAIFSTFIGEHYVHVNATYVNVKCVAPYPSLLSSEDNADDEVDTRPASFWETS

| SMILES | IC50 [1] | IC50 [2] |
| --- | --- | --- |
| FC(F)(F)c1cc(-c2cnc3nnn(CC4CNc5ncccc5O4)c3n2)ccc1OCCN1CCOCC1 (centres unmarked) [KRC-00715] | 9 nM | – |
| Cn1cc(-c2cnc3nnn(CC4CNc5ncccc5O4)c3n2)c2ccccc21 (centres unmarked) [KRC-00509] | – | 6.3 nM |
